Reference: patent publication US20240277658A1, “NLRP3 ACTIVATORS FOR USE IN THE TREATMENT OF INFECTIOUS DISEASES OR CANCER BY ACTIVATING NLRP3 INFLAMMASOME” (ALBERT-LUDWIGS-UNIVERSITÄT FREIBURG, priority 2020, published 2024)
Where “and” joins values, the source holds several entries; their conditions need not be identical. Identical values can stand only once. Like-named read-outs stand apart in the source and are kept apart here.

Tests used:
NLRP3 = experiment: Inflammasome stimulation (IL-1β, LDH release) in BMDCs from NLRP3 knockout or ASC knockout mice; assay type: cell-based, mouse; details: IL-1β and LDH release
Experimental: For canonical inflammasome activation BMDCs after 7-9 days of differentiation were harvested and counted with a Neubauer Chamber (Hecht Assistant) and the concentration was set to 1 Mio cells ml^−1. 100 μl cell suspension per well were seeded in 96-well plates. The cells were primed with 50 ng ml^−1 E. coli K12 ultra-pure LPS for 3 hours and subsequently treated with canonical inflammasome activators or experimental compounds for 3 hours if not indicated differently (incubation time FIG. 4D, 5, 7, 8, 11, 13-18: 3 h, FIG. 12: 4 h). Concentrations of the stimuli were as follows if not indicated differently: 5 μM nigericin, 100 μM imiquimod (also known as R837), 100 μM CL097, 100 μM R848, […] poly(dA:dT), 300 μg ml^−1 MSU. If an inhibitor was used before stimuli treatment, the inhibitor was added after 2.5 hours of priming and it was incubated for 30 minutes before inflammasome activation. Inhibitors were used as follows: 3 μM MCC950, 45 mM KCl, 30 μM ebselen (2-Phenyl-1,2-benzoselenazol-3-one), 5 μM cytochalasin D (see FIGS. 8, 11, 12 and 17).
All inflammasome stimulations were performed in three technical replicates for each condition. Lytic cell death was determined via LDH release (see FIGS. 8, 13-16 and 18), cytokines quantified in cell-free supernatants via ELISA (see FIGS. 4D, 7-9, 11-19) and cell lysates and supernatants analyzed via immunoblotting (see FIGS. 5A and 5B) as previously described in detail (Gross, Olaf, 2012 “Measuring the inflammasome”, Methods in molecular biology, Clifton, N.J., 844, pp. 199-222. Schneider, Katharina S.; Thomas, Christina J.; Groß, Olaf, 2013, “Inflammasome activation and inhibition in primary murine bone marrow-derived cells, and assays for IL-1α, IL-1β, and caspase-1”, Methods in molecular biology, Clifton, N.J., 1040, pp. 117-135).

BMDCs = experiment: LDH release (lytic cell death, pyroptosis) from LPS-primed BMDCs; assay type: cell-based, mouse; details: for Average (% positive control): LDH release; for cytotoxicity at 25 µM / cytotoxicity at 50 µM / cytotoxicity at 75 µM: Mus musculus, BMDC
In short: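 Mouse BMDCs (7-9 days differentiated, GM-CSF) primed with 50 ng ml^−1 E. coli K12 LPS for 3 hours, then exposed 3 hours to compounds (50 μM unless indicated) or activators (nigericin 5 μM; R837, CL097 100 μM). Lytic death measured as LDH release by colorimetric assay, triplicate wells.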

NLRP3 inflammasome = biological target: T1, NLRP3 inflammasome (Mus musculus, UniProt Q8R4B8); experiment: IL-1β release from LPS-primed BMDCs (ELISA) as readout of NLRP3 inflammasome activation; assay type: cell-based
T1 construct: endogenous in cells; host or cells: primary mouse bone marrow-derived dendritic cells (BMDCs), LPS-primed
T1 sequence (Q8R4B8 whole entry): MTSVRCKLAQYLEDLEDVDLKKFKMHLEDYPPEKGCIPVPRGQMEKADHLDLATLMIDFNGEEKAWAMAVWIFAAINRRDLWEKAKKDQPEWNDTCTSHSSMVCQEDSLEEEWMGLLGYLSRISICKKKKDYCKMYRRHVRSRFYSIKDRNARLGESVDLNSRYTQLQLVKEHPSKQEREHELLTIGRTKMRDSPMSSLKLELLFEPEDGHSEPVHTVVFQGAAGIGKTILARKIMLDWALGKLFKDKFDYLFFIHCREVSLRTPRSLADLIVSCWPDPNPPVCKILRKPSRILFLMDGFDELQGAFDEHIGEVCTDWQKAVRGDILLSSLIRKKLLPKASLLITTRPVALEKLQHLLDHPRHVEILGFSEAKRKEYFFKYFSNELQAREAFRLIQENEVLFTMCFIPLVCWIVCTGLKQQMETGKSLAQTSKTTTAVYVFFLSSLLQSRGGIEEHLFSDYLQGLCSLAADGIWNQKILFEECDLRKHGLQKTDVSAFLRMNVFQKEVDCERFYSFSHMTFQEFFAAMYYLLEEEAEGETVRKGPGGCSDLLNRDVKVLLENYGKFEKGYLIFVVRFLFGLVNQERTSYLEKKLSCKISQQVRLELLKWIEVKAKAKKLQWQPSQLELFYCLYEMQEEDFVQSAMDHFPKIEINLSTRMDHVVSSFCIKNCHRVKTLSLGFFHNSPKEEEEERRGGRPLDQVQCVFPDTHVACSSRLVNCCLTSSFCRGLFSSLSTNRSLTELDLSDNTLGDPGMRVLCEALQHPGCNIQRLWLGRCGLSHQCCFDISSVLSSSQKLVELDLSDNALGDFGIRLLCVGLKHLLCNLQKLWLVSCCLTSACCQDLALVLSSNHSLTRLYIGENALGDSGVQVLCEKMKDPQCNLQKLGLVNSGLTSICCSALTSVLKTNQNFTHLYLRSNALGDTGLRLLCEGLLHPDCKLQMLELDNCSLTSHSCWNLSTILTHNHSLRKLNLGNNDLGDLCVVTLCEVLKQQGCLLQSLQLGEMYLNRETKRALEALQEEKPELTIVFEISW
In short: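 NLRP3 inflammasome activation was read out as IL-1β released into the supernatant, measured by ELISA. Murine BMDCs were primed with LPS (50 ng ml^−1, 3 hours), then incubated with compounds for 3 hours, with each condition run in three technical replicates. Nigericin at 5 μM acted as the positive control activator, and IL-1β release was also expressed as a percentage of that control.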

[1] = 25 μM, positive control EN22 10 μM
[2] = 50 μM, positive control EN22 10 μM
[3] = 75 μM, positive control EN22 10 μM
[4] = 25 μM, AH series table, read-out: Average LDH release (% of max.)
[5] = 25 μM, individual replicate values, AH series table, read-out: LDH release (% of max.)
[6] = 50 μM, AH series table, read-out: Average LDH release (% of max.)
[7] = 50 μM, individual replicate values, AH series table, read-out: LDH release (% of max.)
[8] = 75 μM, individual replicate values, read-out: LDH release (% of max.)
[9] = 75 μM, read-out: Average LDH release (% of max.)
[10] = 25 μM, individual replicate values, AH series table
[11] = 50 μM, individual replicate values, AH series table
[12] = 75 μM, individual replicate values, AH series table
[13] = IL-1β, 25 μM, positive control EN22 10 μM
[14] = IL-1β, 50 μM, positive control EN22 10 μM
[15] = IL-1β, 75 μM, positive control EN22 10 μM
[16] = compound 50 μM, positive control nigericin 5 μM
[17] = compound 50 μM, LPS-primed BMDCs, read-out: Average LDH release (% of max.)
[18] = single replicates, compound 50 μM, LPS-primed BMDCs, read-out: LDH release (% of max.)
[19] = IL-1β release, compound 50 μM, positive control nigericin 5 μM
[20] = compound 50 μM, LPS-primed BMDCs
[21] = single replicates, compound 50 μM, LPS-primed BMDCs

## COCCNC(=O)c1cc(-c2ccn(C3CCCC3)n2)n2ccccc12 [EN54]
NLRP3
  characteristics of inflammasome activation in cells isolated from NLRP3 knockout mice: do not occur

## S=C(Nc1ccccc1)Nc1ccc2ncccc2c1 [AH4, 1-phenyl-3-(quinolin-6-yl) thiourea]
BMDCs; [1]
  Average (% positive control): 24.359 % positive control
BMDCs; [2]
  Average (% positive control): 73.142 % positive control
BMDCs; [3]
  Average (% positive control): 89.204 % positive control
BMDCs; [4]
  cytotoxicity at 25 µM: 18.7%
BMDCs; [5]
  cytotoxicity at 25 µM: 20%
BMDCs; [6]
  cytotoxicity at 50 µM: 56.2%
BMDCs; [7]
  cytotoxicity at 50 µM: 57.6%
BMDCs; [8]
  cytotoxicity at 75 µM: 67.9%
BMDCs; [9]
  cytotoxicity at 75 µM: 68.5%
NLRP3 inflammasome; 25 μM, AH series table
  Average IL-1β: 2.151 ng/mL
NLRP3 inflammasome; [10]
  IL-1β: 2.340 ng/mL and 2.250 ng/mL and 1.863 ng/mL
NLRP3 inflammasome; 50 μM, AH series table
  Average IL-1β: 10.000 ng/mL
NLRP3 inflammasome; [11]
  IL-1β: 10.000 ng/mL
NLRP3 inflammasome; 75 μM, AH series table
  Average IL-1β: 9.996 ng/mL
NLRP3 inflammasome; [12]
  IL-1β: 9.988 ng/ml and 10.000 ng/ml (2×)
NLRP3 inflammasome; [13]
  Average (% positive control): 21.507 % positive control
NLRP3 inflammasome; [14]
  Average (% positive control): 100.000 % positive control
NLRP3 inflammasome; [15]
  Average (% positive control): 99.960 % positive control
NLRP3
  characteristics of inflammasome activation in cells isolated from NLRP3 knockout mice: do not occur

## O=C(NCc1nc(-c2ccsc2)no1)Nc1cc(Cl)cc(Cl)c1 [L01.115, 1-(3,5-dichlorophenyl)-3-{[3-(thiophen-3-yl)-1,2,4-oxadiazol-5-yl]-methyl}urea]
BMDCs; [16]
  Average (% positive control): 30.346 % positive control
BMDCs; [17]
  cytotoxicity at 50 µM: 22.2%
BMDCs; [18]
  cytotoxicity at 50 µM: 23.6%
NLRP3 inflammasome; [19]
  Average (% positive control): 1.584 % positive control
NLRP3 inflammasome; [20]
  Average IL-1β: 0.114 ng/mL
NLRP3 inflammasome; [21]
  IL-1β: 0.122 ng/mL and 0.108 ng/mL and 0.111 ng/mL

## O=C(Nc1ccccc1)Nc1ccc(NC(=O)C(F)F)cc1 [L01.016, 2,2-difluoro-N-{4-[(phenylcarbamoyl)-amino]phenyl}acet-amide]
BMDCs; [16]
  Average (% positive control): 17.216 % positive control
BMDCs; [17]
  cytotoxicity at 50 µM: 12.6%
BMDCs; [18]
  cytotoxicity at 50 µM: 11.6%
NLRP3 inflammasome; [19]
  Average (% positive control): 10.857 % positive control
NLRP3 inflammasome; [20]
  Average IL-1β: 0.778 ng/mL
NLRP3 inflammasome; [21]
  IL-1β: 0.755 ng/mL and 0.723 ng/mL and 0.857 ng/mL

## O=C(Nc1cccc(S(=O)(=O)C2CCCC2)c1)N1CCCCC1c1nc(-c2ccccc2)no1 (centres unmarked) [L01.099, N-[3-(cyclopentane-sulfonyl)phenyl]-2-(3-phenyl-1,2,4-oxadiazol-5-yl)piperidine-1-carboxamide]
BMDCs; [16]
  Average (% positive control): 13.410 % positive control
BMDCs; [17]
  cytotoxicity at 50 µM: 9.81%
BMDCs; [18]
  cytotoxicity at 50 µM: 10.6%
NLRP3 inflammasome; [19]
  Average (% positive control): 0.932 % positive control
NLRP3 inflammasome; [20]
  Average IL-1β: 0.067 ng/mL
NLRP3 inflammasome; [21]
  IL-1β: 0.074 ng/mL and 0.067 ng/mL and 0.059 ng/mL

## O=C(NCc1nc(C2CC2)no1)Nc1cccc(F)c1 [L01.081, 3-[(3-cyclopropyl-1,2,4-oxadiazol-5-yl)methyl]-1-(3-fluorophenyl)urea]
BMDCs; [16]
  Average (% positive control): 8.656 % positive control
BMDCs; [17]
  cytotoxicity at 50 µM: 6.33%
BMDCs; [18]
  cytotoxicity at 50 µM: 6.87%
NLRP3 inflammasome; [19]
  Average (% positive control): 1.093 % positive control
NLRP3 inflammasome; [20]
  Average IL-1β: 0.078 ng/mL
NLRP3 inflammasome; [21]
  IL-1β: 0.075 ng/mL and 0.072 ng/mL and 0.088 ng/mL

## CC(C)CC(NC(=O)Nc1cccc(N2CCNC2=O)c1)c1nc(-c2nnc[nH]2)no1 (centres unmarked) [L01.010, 3-{3-methyl-1-[3-(4H-1,2,4-triazol-3-yl)-1,2,4-oxadiazol-5-yl]butyl}-1-[3-(2-oxoimidazolidin-1-yl)phenyl]urea]
BMDCs; [16]
  Average (% positive control): 7.822 % positive control
BMDCs; [17]
  cytotoxicity at 50 µM: 5.72%
BMDCs; [18]
  cytotoxicity at 50 µM: 5.64%
NLRP3 inflammasome; [19]
  Average (% positive control): 0.822 % positive control
NLRP3 inflammasome; [20]
  Average IL-1β: 0.059 ng/mL
NLRP3 inflammasome; [21]
  IL-1β: 0.065 ng/mL and 0.059 ng/mL and 0.053 ng/mL

## Cc1c(F)cccc1NC(=O)Nc1cccc(Cl)c1 [AH3, 1-(3-chlorophenyl)-3-(3-fluoro-2-methylphenyl) urea]
BMDCs; [1]
  Average (% positive control): 16.733 % positive control
BMDCs; [2]
  Average (% positive control): 29.496 % positive control
BMDCs; [3]
  Average (% positive control): 44.370 % positive control
BMDCs; [4]
  cytotoxicity at 25 µM: 12.9%
BMDCs; [5]
  cytotoxicity at 25 µM: 12.8%
BMDCs; [6]
  cytotoxicity at 50 µM: 22.7%
BMDCs; [7]
  cytotoxicity at 50 µM: 22.2%
BMDCs; [8]
  cytotoxicity at 75 µM: 34.6%
BMDCs; [9]
  cytotoxicity at 75 µM: 34.1%
NLRP3 inflammasome; 25 μM, AH series table
  Average IL-1β: 0.588 ng/mL
NLRP3 inflammasome; [10]
  IL-1β: 0.540 ng/mL and 0.630 ng/mL and 0.593 ng/mL
NLRP3 inflammasome; 50 μM, AH series table
  Average IL-1β: 1.519 ng/mL
NLRP3 inflammasome; [11]
  IL-1β: 1.267 ng/mL and 1.615 ng/mL and 1.675 ng/mL
NLRP3 inflammasome; 75 μM, AH series table
  Average IL-1β: 2.224 ng/mL
NLRP3 inflammasome; [12]
  IL-1β: 2.288 ng/mL and 2.351 ng/mL and 2.032 ng/mL
NLRP3 inflammasome; [13]
  Average (% positive control): 5.875 % positive control
NLRP3 inflammasome; [14]
  Average (% positive control): 15.193 % positive control
NLRP3 inflammasome; [15]
  Average (% positive control): 22.240 % positive control
